{"source": "ChEMBL document CHEMBL5352505", "about": "“Targeting MET: Discovery of Small Molecule Inhibitors as Non-Small Cell Lung Cancer Therapy” (J Med Chem, 2023)", "key": {"EBC-1 [1]": {"tested_on": "EBC-1", "assay": "cells", "conditions": "Homo sapiens"}, "MKN-45 [2]": {"tested_on": "MKN-45", "assay": "cells", "conditions": "Homo sapiens"}, "MKN-45 [3]": {"tested_on": "MKN-45", "assay": "Antiproliferative activity against human MKN-45 cells assessed as inhibition of cell growth measured after 72 hrs by Cell Titer blue assay", "assay_type": "functional, cell-based", "conditions": "MKN-45, 72 h"}, "SNU-5": {"tested_on": "SNU-5", "assay": "cells", "conditions": "Homo sapiens"}, "CT26": {"tested_on": "CT26", "assay": "Antiproliferative activity against CT26 cells assessed as inhibition of cell growth", "assay_type": "functional, cell-based", "conditions": "Mus musculus"}, "[4]": {"molecular_target": "T1, Hepatocyte growth factor receptor (Homo sapiens, UniProt P08581)", "assay": "Inhibition of MET (unknown origin)"}, "MKN-45 [5]": {"tested_on": "MKN-45", "assay": "Antiproliferative activity against human MKN-45 cells assessed as inhibition of cell growth measured after 72 hrs by CellTiter-Glo assay", "assay_type": "functional, cell-based", "conditions": "MKN-45, 72 h"}, "EBC-1 [6]": {"tested_on": "EBC-1", "assay": "Antiproliferative activity against human EBC-1 cells assessed as inhibition of cell growth measured after 72 hrs by CellTiter-Glo assay", "assay_type": "functional, cell-based", "conditions": "EBC-1, 72 h"}, "Hs746T [7]": {"tested_on": "Hs746T", "assay": "cells", "conditions": "Homo sapiens"}, "A549 [8]": {"tested_on": "A549", "assay": "Antiproliferative activity against human A549 cells assessed as inhibition of cell growth", "assay_type": "functional, cell-based"}, "NCI-H1703": {"tested_on": "NCI-H1703", "assay": "Antiproliferative activity against human NCI-H1703 cells assessed as inhibition of cell growth", "assay_type": "functional, cell-based"}, "NCI-H1993": {"tested_on": "NCI-H1993", "assay": "Antiproliferative activity against human NCI-H1993 cells assessed as inhibition of cell growth", "assay_type": "functional, cell-based"}, "[9]": {"molecular_target": "T1, Hepatocyte growth factor receptor", "assay": "Inhibition of human GST tagged c-Met CD expressed in Sf9 cells using poly(Glu:Tyr) as substrate incubated for 5 mins in presence of ATP by horseradish peroxidase based ELISA method"}, "[10]": {"assay": "Oral bioavailability in mouse", "assay_type": "ADME, organism-based", "conditions": "in vivo"}, "MHCC97H": {"tested_on": "MHCC97H", "assay": "cells", "conditions": "Homo sapiens, 72 h"}, "GTL 16 cell line": {"tested_on": "GTL 16 cell line", "assay": "Antiproliferative activity against human GTL 16 cell line assessed as inhibition of cell growth", "assay_type": "functional, cell-based"}, "Hs746T [11]": {"tested_on": "Hs746T", "assay": "Antiproliferative activity against human Hs746T cells assessed as inhibition of cell growth measured after 4 days by CellTiter-Glo assay", "assay_type": "functional, cell-based", "conditions": "96 h"}, "EBC-1 [12]": {"tested_on": "EBC-1", "assay": "Antiproliferative activity against human EBC-1 cells assessed as inhibition of cell growth measured after 3 days by CellTiter-Glo assay", "assay_type": "functional, cell-based", "conditions": "EBC-1, 72 h"}, "A549 [13]": {"tested_on": "A549", "assay": "Antiproliferative activity against human A549 cells assessed as inhibition of cell growth measured after 48 hrs by MTS assay", "assay_type": "functional, cell-based", "conditions": "A549, 48 h"}, "NCI-H460": {"tested_on": "NCI-H460", "assay": "Antiproliferative activity against human NCI-H460 cells assessed as inhibition of cell growth measured after 48 hrs by MTS assay", "assay_type": "functional, cell-based", "conditions": "NCI-H460, 48 h"}, "NCI-H441": {"tested_on": "NCI-H441", "assay": "Antiproliferative activity against human NCI-H441 cells assessed as inhibition of cell growth measured after 48 hrs by MTS assay", "assay_type": "functional, cell-based", "conditions": "NCI-H441, 48 h"}, "MKN-45 [14]": {"tested_on": "MKN-45", "assay": "Antiproliferative activity against human MKN-45 cells assessed as inhibition of cell growth measured after 48 hrs by MTS assay", "assay_type": "functional, cell-based", "conditions": "MKN-45, 48 h"}, "[15]": {"assay": "Metabolic stability in mouse liver microsomes assessed as half life", "assay_type": "ADME, Microsome"}, "[16]": {"assay": "Metabolic stability in human liver microsomes assessed as half life", "assay_type": "ADME, Microsome"}, "[17]": {"assay": "Metabolic stability in rat liver microsomes assessed as half life", "assay_type": "ADME, Microsome"}}, "data": [{"smiles": "Cn1cc(-c2ccc3nnc(C(F)(F)c4ccc5ncccc5c4)n3n2)cn1", "note": "[JNJ-38877605]", "values": [{"measurement": "IC50", "setting": "EBC-1 [1]", "result": 8.4, "unit": "nM"}, {"measurement": "IC50", "setting": "MKN-45 [2]", "result": 18.6, "unit": "nM"}]}, {"smiles": "C[C@H]1CNC(=O)c2c(N)nn3ccc(nc23)NCc2c(ccc(F)c2C#N)O1", "values": [{"measurement": "IC50", "setting": "MKN-45 [2]", "result": 297, "unit": "nM"}]}, {"smiles": "C[C@@H](Oc1cc(C(=O)Nc2ccc(C(=O)N3CCN(C)CC3)cc2)nnc1N)c1c(Cl)ccc(F)c1Cl", "values": [{"measurement": "IC50", "setting": "MKN-45 [3]", "result": 150, "unit": "nM"}]}, {"smiles": "CCN1Cc2c(ccc(F)c2C#N)O[C@@H](C)CNC(=O)c2c(N)nn3ccc1nc23", "note": "[ELZOVANTINIB]", "values": [{"measurement": "IC50", "setting": "MKN-45 [2]", "result": 0.2, "unit": "nM"}, {"measurement": "IC50", "setting": "SNU-5", "result": 0.17, "unit": "nM"}]}, {"smiles": "COc1cc2c(Oc3ccc(-c4cnc(Nc5ccc(F)cc5)n(C)c4=O)nc3)ccnc2cc1OCCCN1CCOCC1", "values": [{"measurement": "IC50", "setting": "CT26", "result": 59, "unit": "nM"}]}, {"smiles": "COc1ccc2c(Oc3ccc(NC(=O)c4c(C)n(CC(C)(C)O)n(-c5ccccc5)c4=O)nc3)ccnc2c1", "values": [{"measurement": "IC50", "setting": "[4]", "result": 2, "unit": "nM"}]}, {"smiles": "[O-][S+](c1c(Cl)ccc(F)c1Cl)c1c[nH]c2ncc(-c3cnn(C4CCNCC4)c3)cc12", "note": "(centres undefined)", "values": [{"measurement": "IC50", "setting": "MKN-45 [5]", "result": 1490, "unit": "nM"}, {"measurement": "IC50", "setting": "EBC-1 [6]", "result": 1590, "unit": "nM"}]}, {"smiles": "Cc1c(C(=O)Nc2ccc(Oc3ccnc4cc(OCC(C)(C)O)ccc34)c(F)c2)c(=O)n(-c2ccccc2)n1C", "note": "[NINGETINIB]", "values": [{"measurement": "IC50", "setting": "MKN-45 [2]", "result": 7, "unit": "nM"}, {"measurement": "IC50", "setting": "SNU-5", "result": 60, "unit": "nM"}, {"measurement": "IC50", "setting": "Hs746T [7]", "result": 140, "unit": "nM"}]}, {"smiles": "CN1CCN(Cc2ccc(-c3cnc(N4CCOC(Cn5nnc6ncc(-c7cnn(C)c7)nc65)C4)nc3)cc2)CC1", "note": "(centres undefined)", "values": [{"measurement": "IC50", "setting": "EBC-1 [1]", "result": 2.22, "unit": "nM"}, {"measurement": "IC50", "setting": "MKN-45 [2]", "result": 3.18, "unit": "nM"}, {"measurement": "IC50", "setting": "SNU-5", "result": 4.34, "unit": "nM"}, {"measurement": "IC50", "setting": "Hs746T [7]", "result": 2, "unit": "nM"}]}, {"smiles": "Cc1ccc(C(=O)Nc2ccc(Oc3cc4cnn(C)c4cc3-c3cn[nH]c3)c(F)c2)c(=O)n1-c1ccc(F)cc1", "note": "[MERESTINIB]", "values": [{"measurement": "IC50", "setting": "A549 [8]", "result": 628, "unit": "nM"}, {"measurement": "IC50", "setting": "NCI-H1703", "result": 72.9, "unit": "nM"}, {"measurement": "IC50", "setting": "NCI-H1993", "result": 9.28, "unit": "nM"}]}, {"smiles": "Cc1[nH]c(/C=C2\\C(=O)Nc3ccc(S(=O)(=O)N(C)c4cccc(Cl)c4)cc32)c(C)c1C(=O)N1CCN(C)CC1", "values": [{"measurement": "IC50", "setting": "[9]", "result": 10, "unit": "nM"}]}, {"smiles": "CN1CCN(C2CCN(C(=O)Nc3cc(Oc4ccc(NC(=O)C5(C(=O)Nc6ccc(F)cc6)CC5)c(F)c4)ccn3)CC2)CC1", "note": "[GOLVATINIB]", "values": [{"measurement": "IC50", "setting": "EBC-1 [1]", "result": 24, "unit": "nM"}, {"measurement": "IC50", "setting": "MKN-45 [2]", "result": 37, "unit": "nM"}, {"measurement": "IC50", "setting": "SNU-5", "result": 6.2, "unit": "nM"}, {"measurement": "IC50", "setting": "Hs746T [7]", "result": 23, "unit": "nM"}]}, {"smiles": "[2H]C([2H])[C@]([2H])(c1cccc(-c2ncc(OCC3CCN(C)CC3)cn2)c1)n1nc(-c2cccc(C#N)c2)ccc1=O", "values": [{"measurement": "bioavailability", "setting": "[10]", "result": 104, "unit": "%"}, {"measurement": "IC50", "setting": "MHCC97H", "result": 37, "unit": "nM"}]}, {"smiles": "Fc1ccc(Cl)c(C2(c3n[nH]c4ncc(-c5cnn(C6CCNCC6)c5)cc34)CC2)c1Cl", "values": [{"measurement": "IC50", "setting": "MKN-45 [5]", "result": 670, "unit": "nM"}, {"measurement": "IC50", "setting": "EBC-1 [6]", "result": 1190, "unit": "nM"}]}, {"smiles": "CCOc1ccn(-c2ccc(F)cc2)c(=O)c1C(=O)Nc1ccc(Oc2ccnc(N)c2Cl)c(F)c1", "note": "[BMS-777607]", "values": [{"measurement": "IC50", "setting": "GTL 16 cell line", "result": 100, "unit": "nM"}]}, {"smiles": "CC(C)(O)CN1CCC(COc2cnc(-c3cccc(Cn4c(=O)ccn5c6cc(C#N)ccc6nc45)c3)nc2)CC1", "values": [{"measurement": "IC50", "setting": "Hs746T [11]", "result": 1.5, "unit": "nM"}, {"measurement": "bioavailability", "setting": "[10]", "result": 82.3, "unit": "%"}, {"measurement": "IC50", "setting": "EBC-1 [12]", "result": 4.81, "unit": "nM"}]}, {"smiles": "O=C1NC(=O)[C@@H](c2cn3c4c(cccc24)CCC3)[C@@H]1c1c[nH]c2ccccc12", "note": "[TIVANTINIB]", "values": [{"measurement": "IC50", "setting": "A549 [13]", "result": 590, "unit": "nM"}, {"measurement": "IC50", "setting": "NCI-H460", "result": 600, "unit": "nM"}, {"measurement": "IC50", "setting": "NCI-H441", "result": 300, "unit": "nM"}, {"measurement": "IC50", "setting": "MKN-45 [14]", "result": 580, "unit": "nM"}]}, {"smiles": "[2H]c1ccc2cc(C(F)(F)c3nnc4ccc(-c5cnn(C)c5)nn34)ccc2n1", "values": [{"measurement": "IC50", "setting": "EBC-1 [1]", "result": 17, "unit": "nM"}, {"measurement": "IC50", "setting": "MKN-45 [2]", "result": 25, "unit": "nM"}]}, {"smiles": "C[C@H](c1cccc(-c2ncc(OCC3CCN(C)CC3)cn2)c1)n1cc(-c2cc(C#N)ccn2)cc(F)c1=O", "values": [{"measurement": "half-life", "setting": "[15]", "result": 49.1, "unit": "min"}, {"measurement": "half-life", "setting": "[16]", "result": 62.1, "unit": "min"}, {"measurement": "half-life", "setting": "[17]", "result": 36.5, "unit": "min"}, {"measurement": "IC50", "setting": "MHCC97H", "result": 8.8, "unit": "nM"}]}, {"smiles": "CCN1Cc2c(ccc(F)c2C#N)O[C@H](C)CNC(=O)c2c(N)nn3ccc1nc23", "values": [{"measurement": "IC50", "setting": "MKN-45 [2]", "result": 251, "unit": "nM"}]}]}
